Measurements from patent US20190255091A1, “RNAi AGENTS FOR [sequence] B VIRUS INFECTION” (priority 2016, published 2019).

Experiments:
Hepatitis B Virus (HBV) [1] = experiment: Serum HBeAg levels in pHBV model mice (ELISA); assay type: in vivo; parameters: key to Average HBeAg levels normalized to pre-treatment and PBS control: ratio to pre-treatment level, divided by PBS control ratio; settings: for Average HBeAg fold knockdown normalized to pre-treatment and PBS control / Average HBeAg levels normalized to pre-treatment and PBS control: single s.c. injection day 1, Example 7; for Average HBeAg levels normalized to pre-treatment and PBS control: pooled serum
Description: (§1) Six to eight-week-old female NOD.CB17-Prkdscid/NcrCrl (NOD-SCID) mice were transiently transfected in vivo with MC-HBV1.3 by hydrodynamic tail vein injection (Yang P L et al. “Hydrodynamic injection of viral DNA: a mouse model of acute hepatitis B virus infection,” PNAS USA 2002 Vol. 99: p. 13825-13830), administered 30 to 45 days prior to administration of an HBV RNAi agent or control. MC-HBV1.3 is a plasmid-derived minicircle that contains the same terminally redundant human hepatitis B virus sequence HBV1.3 as in plasmid pHBV1.3 and in the HBV1.3.32 transgenic mice (GenBank accession #V01460) (Guidotti L G et al., “High-level hepatitis B virus replication in transgenic mice,” J Virol 1995 Vol. 69, p 6158-6169.). 5 or 10 μg MC-HBV1.3 in Ringer's Solution in a total volume of 10% of the animal's body weight was injected into mice via tail vein to create pHBV model of chronic HBV infection. The solution was injected through a 27-gauge needle in 5-7 seconds as previously described (Zhang G et al., “High levels of foreign gene expression in hepatocytes after tail vein injection of naked plasmid DNA.” Human Gene Therapy 1999 Vol. 10, p 1735-1737.). At pre-dose (either day 1 pre-dose, day −1, or day −2), Hepatitis B surface antigen (HBsAg) HBsAg expression levels in serum were measured by ELISA and the mice were grouped according to average HBsAg expression levels.
(§2) HBV expression levels were normalized to pre-administration expression levels and to control mice injected with phosphate buffered saline (“PBS”).
HBeAg analysis was performed with the HBeAg enzyme linked immunosorbent assay (ELISA) as described by the manufacturer (DiaSorin) using serum diluted 4- to 20-fold in 5% nonfat dry milk. The amount of antigen was determined in the linear range of the assay and quantitated against HBeAg protein standards (Fitzgerald Industries International, catalog #30-AH18, Acton, Mass.).
HBeAg expression for each animal was normalized to the control group of mice injected with PBS in order to account for the non-treatment related decline in expression of MC-HBV1.3. For evaluation of HBeAg in serum, HBeAg is analyzed from pooled group or subgroup serum samples. First, the HBeAg level for each pooled group or subgroup was divided by the pre-treatment level of expression in the same group or subgroup in order to determine the ratio of expression “normalized to pre-treatment”. Expression at a specific time point was then normalized to the control group by dividing the “normalized to pre-treatment” ratio for a group or subgroup by the average “normalized to pre-treatment” ratio of all samples from the normal PBS control group.

Hepatitis B Virus (HBV) [2] = experiment: Serum HBsAg levels in pHBV model mice (ELISA); assay type: in vivo; parameters: key to Average HBsAg levels normalized to pre-treatment (day −1) and PBS control / Average HBsAg levels normalized to pre-treatment and PBS control: fraction of pre-treatment level, relative to PBS control mean; settings: single s.c. injection day 1, Example 7
Description: as §1, §2
Mice were anesthetized with 2-3% isoflurane and blood samples were collected from the submandibular area into serum separation tubes (Sarstedt AG & Co., Nümbrecht, Germany). Blood was allowed to coagulate at ambient temperature for 20 min. The tubes were centrifuged at 8,000×g for 3 min to separate the serum and stored at 4° C.
Serum was collected and diluted 10 to 8000-fold in PBS containing 5% nonfat dry milk. […] HBsAg levels were determined with a GS HBsAg EIA 3.0 kit (Bio-Rad Laboratories, Inc., Redmond, Wash.) as described by the manufacturer. Recombinant HBsAg protein, ayw subtype, also diluted in nonfat milk in PBS, was used as a primary standard (Aldevron).
HBsAg expression for each animal was normalized to the control group of mice injected with PBS in order to account for the non-treatment related decline in expression of MC-HBV1.3. First, the HBsAg level for each animal at a time point was divided by the pre-treatment level of expression in that animal in order to determine the ratio of expression “normalized to pre-treatment”. Expression at a specific time point was then normalized to the control group by dividing the “normalized to pre-treatment” ratio for an individual animal by the average “normalized to pre-treatment” ratio of all mice in the normal PBS control group.

AD04982: HBV RNAi agent duplex AM06464-AS/AM06150-SS (antisense UACCAAUUUAUGCCUACAGCC; sense GGCUGUAGGCAUAAAUUGGUA; chemistry not fully specified)
Average HBeAg fold knockdown normalized to pre-treatment and PBS control (Hepatitis B Virus (HBV) [1]; Day 8, 1.0 mg/kg): 2.1 Fold KD
Average HBeAg levels normalized to pre-treatment and PBS control (Hepatitis B Virus (HBV) [1]; Day 8, 1.0 mg/kg): 0.471
Average HBeAg fold knockdown normalized to pre-treatment and PBS control (Hepatitis B Virus (HBV) [1]; Day 8, 2.0 mg/kg): 3.0 Fold KD
Average HBeAg levels normalized to pre-treatment and PBS control (Hepatitis B Virus (HBV) [1]; Day 8, 2.0 mg/kg): 0.335
Average HBeAg fold knockdown normalized to pre-treatment and PBS control (Hepatitis B Virus (HBV) [1]; Day 15, 1.0 mg/kg): 2.4 Fold KD
Average HBeAg levels normalized to pre-treatment and PBS control (Hepatitis B Virus (HBV) [1]; Day 15, 1.0 mg/kg): 0.424
Average HBeAg fold knockdown normalized to pre-treatment and PBS control (Hepatitis B Virus (HBV) [1]; Day 15, 2.0 mg/kg): 3.2 Fold KD
Average HBeAg levels normalized to pre-treatment and PBS control (Hepatitis B Virus (HBV) [1]; Day 15, 2.0 mg/kg): 0.310
Average HBeAg fold knockdown normalized to pre-treatment and PBS control (Hepatitis B Virus (HBV) [1]; Day 22, 1.0 mg/kg): 1.8 Fold KD
Average HBeAg levels normalized to pre-treatment and PBS control (Hepatitis B Virus (HBV) [1]; Day 22, 1.0 mg/kg): 0.562
Average HBeAg fold knockdown normalized to pre-treatment and PBS control (Hepatitis B Virus (HBV) [1]; Day 22, 2.0 mg/kg): 2.4 Fold KD
Average HBeAg levels normalized to pre-treatment and PBS control (Hepatitis B Virus (HBV) [1]; Day 22, 2.0 mg/kg): 0.411
Average HBeAg fold knockdown normalized to pre-treatment and PBS control (Hepatitis B Virus (HBV) [1]; Day 29, 1.0 mg/kg): 2.0 Fold KD
Average HBeAg levels normalized to pre-treatment and PBS control (Hepatitis B Virus (HBV) [1]; Day 29, 1.0 mg/kg): 0.513
Average HBeAg fold knockdown normalized to pre-treatment and PBS control (Hepatitis B Virus (HBV) [1]; Day 29, 2.0 mg/kg): 2.3 Fold KD
Average HBeAg levels normalized to pre-treatment and PBS control (Hepatitis B Virus (HBV) [1]; Day 29, 2.0 mg/kg): 0.442
Average HBeAg fold knockdown normalized to pre-treatment and PBS control (Hepatitis B Virus (HBV) [1]; Day 36, 1.0 mg/kg): 1.4 Fold KD
Average HBeAg levels normalized to pre-treatment and PBS control (Hepatitis B Virus (HBV) [1]; Day 36, 1.0 mg/kg): 0.705
Average HBeAg fold knockdown normalized to pre-treatment and PBS control (Hepatitis B Virus (HBV) [1]; Day 36, 2.0 mg/kg): 2.0 Fold KD
Average HBeAg levels normalized to pre-treatment and PBS control (Hepatitis B Virus (HBV) [1]; Day 36, 2.0 mg/kg): 0.500
fold decrease of HBeAg (Hepatitis B Virus (HBV) [1]; Example 7 Group D, 2.0 mg/kg AD04982, day 15): 3.2 fold
Average HBsAg levels normalized to pre-treatment (day −1) and PBS control (Hepatitis B Virus (HBV) [2]; Day 8, 1.0 mg/kg): 0.519 ± 0.058
Average HBsAg levels normalized to pre-treatment (day −1) and PBS control (Hepatitis B Virus (HBV) [2]; Day 8, 2.0 mg/kg): 0.342 ± 0.062
Average HBsAg levels normalized to pre-treatment (day −1) and PBS control (Hepatitis B Virus (HBV) [2]; Day 15, 1.0 mg/kg): 0.375 ± 0.012
Average HBsAg levels normalized to pre-treatment (day −1) and PBS control (Hepatitis B Virus (HBV) [2]; Day 15, 2.0 mg/kg): 0.255 ± 0.046
Average HBsAg levels normalized to pre-treatment (day −1) and PBS control (Hepatitis B Virus (HBV) [2]; Day 22, 1.0 mg/kg): 0.422 ± 0.046
Average HBsAg levels normalized to pre-treatment (day −1) and PBS control (Hepatitis B Virus (HBV) [2]; Day 22, 2.0 mg/kg): 0.272 ± 0.122
Average HBsAg levels normalized to pre-treatment (day −1) and PBS control (Hepatitis B Virus (HBV) [2]; Day 29, 1.0 mg/kg): 0.525
Average HBsAg levels normalized to pre-treatment (day −1) and PBS control (Hepatitis B Virus (HBV) [2]; Day 29, 2.0 mg/kg): 0.314
